According to PubChem BioAssay (NCI):
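How tested: cells in 96-well plates exposed to compound for 48 hours at five concentrations. At the TGI there is no net growth.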

Experiments:
Test in all cases: inhibition of tumour cell growth, NCI panel, 48 h
SK-MEL-2 melanoma = test system: SK-MEL-2 melanoma
M19-MEL melanoma = test system: M19-MEL melanoma
SF-295 CNS = test system: SF-295 CNS
HCT-116 colon = test system: HCT-116 colon
786-0 renal = test system: 786-0 renal
A549 NSCLC = test system: A549 NSCLC
SF-268 CNS = test system: SF-268 CNS
UO-31 renal = test system: UO-31 renal
HCC-2998 colon = test system: HCC-2998 colon
A498 renal = test system: A498 renal
OVCAR-4 ovarian = test system: OVCAR-4 ovarian
CCRF-CEM leukemia = test system: CCRF-CEM leukemia
RXF 393 renal = test system: RXF 393 renal
OVCAR-5 ovarian = test system: OVCAR-5 ovarian
MALME-3M melanoma = test system: MALME-3M melanoma
SNB-19 CNS = test system: SNB-19 CNS
KM20L2 colon = test system: KM20L2 colon
SK-MEL-5 melanoma = test system: SK-MEL-5 melanoma
SK-OV-3 ovarian = test system: SK-OV-3 ovarian
CAKI-1 renal = test system: CAKI-1 renal
LXFL 529 NSCLC = test system: LXFL 529 NSCLC
TK-10 renal = test system: TK-10 renal
SW-620 colon = test system: SW-620 colon
HT29 colon = test system: HT29 colon
IGROV1 ovarian = test system: IGROV1 ovarian
KM12 colon = test system: KM12 colon
SNB-75 CNS = test system: SNB-75 CNS
NCI-H522 lung = test system: NCI-H522 lung
ACHN renal = test system: ACHN renal
HOP-62 NSCLC = test system: HOP-62 NSCLC
K-562 leukemia = test system: K-562 leukemia
LOX IMVI melanoma = test system: LOX IMVI melanoma
M14 melanoma = test system: M14 melanoma
HL-60(TB) leukemia = test system: HL-60(TB) leukemia
UACC-62 melanoma = test system: UACC-62 melanoma
HOP-18 NSCLC = test system: HOP-18 NSCLC
NCI-H460 lung = test system: NCI-H460 lung
SNB-78 CNS = test system: SNB-78 CNS
HOP-92 NSCLC = test system: HOP-92 NSCLC
RPMI-8226 leukemia = test system: RPMI-8226 leukemia
DMS 273 small cell lung = test system: DMS 273 small cell lung
OVCAR-8 ovarian = test system: OVCAR-8 ovarian
UACC-257 melanoma = test system: UACC-257 melanoma
SF-539 CNS = test system: SF-539 CNS
SR leukemia = test system: SR leukemia
COLO 205 colon = test system: COLO 205 colon
HCT-15 colon = test system: HCT-15 colon
DMS 114 small cell lung = test system: DMS 114 small cell lung
MOLT-4 leukemia = test system: MOLT-4 leukemia
SN12C renal = test system: SN12C renal
DLD-1 colon = test system: DLD-1 colon
U251 CNS = test system: U251 CNS
OVCAR-3 ovarian = test system: OVCAR-3 ovarian
NCI-H23 lung = test system: NCI-H23 lung
EKVX NSCLC = test system: EKVX NSCLC
SK-MEL-28 melanoma = test system: SK-MEL-28 melanoma
NCI-H226 lung = test system: NCI-H226 lung
XF 498 CNS = test system: XF 498 CNS
MCF7 breast = test system: MCF7 breast
MDA-MB-435 = test system: MDA-MB-435
MDA-MB-231 breast = test system: MDA-MB-231 breast
PC-3 prostate = test system: PC-3 prostate
BT-549 breast = test system: BT-549 breast
T-47D breast = test system: T-47D breast
NCI/ADR-RES ovarian = test system: NCI/ADR-RES ovarian
HS 578T breast = test system: HS 578T breast
MDA-N = test system: MDA-N
DU-145 prostate = test system: DU-145 prostate

Measured: TGI

Cc1cc2c(c(N)c1C)C(=O)c1ccccc1C2=O
79 µM: A498 renal
96.6 µM: U251 CNS
49.2 µM: SK-OV-3 ovarian
39.8 µM: SNB-75 CNS
50.4 µM: HCT-116 colon
40 µM: HOP-62 NSCLC
93.1 µM: TK-10 renal
86.6 µM: SF-295 CNS
62.7 µM: 786-0 renal
31.5 µM: SF-539 CNS
55.3 µM: CAKI-1 renal
33.1 µM: UO-31 renal
41.4 µM: OVCAR-4 ovarian
56 µM: HOP-18 NSCLC
35.5 µM: UACC-62 melanoma
58.9 µM: HOP-92 NSCLC
not listed: OVCAR-3 ovarian | NCI-H23 lung | EKVX NSCLC | SK-MEL-28 melanoma | NCI-H226 lung | XF 498 CNS | MCF7 breast | MDA-MB-435 | MDA-MB-231 breast | PC-3 prostate | BT-549 breast | T-47D breast | NCI/ADR-RES ovarian | HS 578T breast | MDA-N | DU-145 prostate
> 100 µM: all other assays above

Cc1ccc(C(=O)NC(C)(C)C)cc1N=NN(C)C
not listed: M19-MEL melanoma | A498 renal | CCRF-CEM leukemia | RXF 393 renal | OVCAR-5 ovarian | MALME-3M melanoma | SK-OV-3 ovarian | SNB-75 CNS | K-562 leukemia | HL-60(TB) leukemia | HOP-18 NSCLC | RPMI-8226 leukemia | SR leukemia | COLO 205 colon | DMS 114 small cell lung | MOLT-4 leukemia | NCI-H226 lung | XF 498 CNS | MCF7 breast | MDA-MB-435 | MDA-MB-231 breast | PC-3 prostate | BT-549 breast | T-47D breast | NCI/ADR-RES ovarian | HS 578T breast | MDA-N | DU-145 prostate
> 100 µM: all other assays above

CC1=NN(C(=O)Cc2ccccc2)C(=O)/C1=C\c1ccco1
not listed: A498 renal | RXF 393 renal | KM20L2 colon | SK-OV-3 ovarian | LXFL 529 NSCLC | IGROV1 ovarian | UACC-62 melanoma | NCI-H460 lung | HOP-92 NSCLC | U251 CNS | MCF7 breast | MDA-MB-435 | MDA-MB-231 breast | PC-3 prostate | BT-549 breast | T-47D breast | NCI/ADR-RES ovarian | HS 578T breast | MDA-N | DU-145 prostate
> 100 µM: all other assays above

O=C(O)C(F)(OC(F)(F)C(F)(OC(F)(F)C(F)(F)C(F)(F)F)C(F)(F)F)C(F)(F)F (centres undefined)
not listed: M19-MEL melanoma | KM20L2 colon | LXFL 529 NSCLC | HOP-18 NSCLC | SNB-78 CNS | DMS 273 small cell lung | DMS 114 small cell lung | DLD-1 colon | XF 498 CNS
> 100 µM: all other assays above
